From patent EP4729529A1, “PREPARATION OF PEPTIDE INHIBITOR OF INTERLEUKIN-23 RECEPTOR AND USE THEREOF” (Xizang Haisco Pharmaceutical Co., Ltd., priority 2023, dated 2024)
Positions of bridges follow the written chain, without caps; N, C: chain ends. Non-standard residues stand in square brackets, D forms with d. Residues, ends and D or L forms follow the SMILES beside them. Phe(4-OC2H4NH2,2,3-(CH2)3) = NCCOc1ccc(C[C@H](N)C(=O)O)c2c1CCC2; Trp(7-Me) = Cc1cccc2c(C[C@H](N)C(=O)O)c[nH]c12; 2Nal = N[C@@H](Cc1ccc2ccccc2c1)C(=O)O; Thp(SO2) = NC1(C(=O)O)CCS(=O)(=O)CC1; AEF = NCCOc1ccc(C[C@H](N)C(=O)O)cc1; 3Pal = N[C@@H](Cc1cccnc1)C(=O)O; Pen = CC(C)(S)[C@H](N)C(=O)O; Dab = NCC[C@H](N)C(=O)O; Thp = NC1(C(=O)O)CCOCC1; Sar = CNCC(=O)O

Columns and labels:
IL-23α/IL-12β and IL-23R = target: T1, IL-23α/IL-12β and IL-23R (Homo sapiens, UniProt Q5VWK5); test: IL-23α/IL-12β and IL-23R binding assay (TR-FRET/HTRF); details: inhibition of the binding of IL-23α/IL-12β to IL-23R, TR-FRET; both proteins 0.3 nM
T1 construct: purchased ACRO ILR-H82F3 (IL-23R); ILB-H52W5 (IL-23α/IL-12β)
T1 sequence (Q5VWK5 24-353 limits assumed): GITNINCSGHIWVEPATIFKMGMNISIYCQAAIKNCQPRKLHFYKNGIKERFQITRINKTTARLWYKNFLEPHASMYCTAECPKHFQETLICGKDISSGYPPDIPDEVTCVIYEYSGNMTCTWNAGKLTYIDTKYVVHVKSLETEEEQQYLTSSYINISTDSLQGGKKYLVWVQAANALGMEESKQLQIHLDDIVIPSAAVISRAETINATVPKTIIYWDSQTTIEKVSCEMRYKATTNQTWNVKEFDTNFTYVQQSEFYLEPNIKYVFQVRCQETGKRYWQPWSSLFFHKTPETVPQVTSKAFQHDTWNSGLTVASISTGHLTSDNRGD
How it was run: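 TR-FRET with IL-23α/IL-12β and IL-23R each at 0.3 nM in PPI buffer; compound preincubated with IL-23α/IL-12β 60 min at 25°C, then IL-23R and Tb/d2 detection reagents added for 60 min. HTRF 665/620 ratio; IC50 by nonlinear regression.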

[1] = target: (Homo sapiens, UniProt Q5VWK5); test: IL-23-stimulated pSTAT3 detection assay in PBMCs (ELISA); format: cell-based; details: rhIL23 stimulation 30 minutes, read-out: pSTAT3 inhibition/IC50
(Homo sapiens, UniProt Q5VWK5), sequence (Q9NPF7 20-189 partner, other chains not shown): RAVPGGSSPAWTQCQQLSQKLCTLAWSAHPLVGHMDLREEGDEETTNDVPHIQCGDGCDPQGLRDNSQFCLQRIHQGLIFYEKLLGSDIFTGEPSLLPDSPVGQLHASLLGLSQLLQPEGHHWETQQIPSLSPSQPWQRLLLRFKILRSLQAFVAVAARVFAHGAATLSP
(Homo sapiens, UniProt Q5VWK5), sequence (P29460 23-328 partner, other chains not shown): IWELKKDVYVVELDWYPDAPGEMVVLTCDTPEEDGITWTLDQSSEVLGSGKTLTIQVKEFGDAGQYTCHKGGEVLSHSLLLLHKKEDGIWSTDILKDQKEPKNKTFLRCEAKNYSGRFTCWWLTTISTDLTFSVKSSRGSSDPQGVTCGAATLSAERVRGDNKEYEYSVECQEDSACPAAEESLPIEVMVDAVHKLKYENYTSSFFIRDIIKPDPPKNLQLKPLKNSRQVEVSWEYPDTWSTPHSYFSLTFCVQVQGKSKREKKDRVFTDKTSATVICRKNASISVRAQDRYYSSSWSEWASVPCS
Experimental: 3. IL-23-stimulated pSTAT3 detection assay in PBMCs
Cryopreserved human PBMCs were thawed, and seeded onto a plate previously covered with an anti-CD3 antibody at 1 × 10^6 cells/well. Then, an anti-CD28 antibody was added to the plate, and the cells were incubated at 37°C with 5% CO2 for 5 days. On Day 5, the cells were seeded onto a 96-well plate at a density of 100K cells/well after 4 hours of stimulation by FBS starvation. The diluted Compound was transferred into the 96-well cell culture plate, and the plate was incubated at 37°C with 5% CO2 for 1 hour. rhIL23 (R&D, 1290-IL) was added to the cell culture plate, and the plate was incubated at 37°C with 5% CO2 for 30 minutes. The cells in the wells were lysed on ice with a lysis buffer containing 1× PHOSstop solution for 30 minutes, and the plate was centrifuged at 1000 rpm for 1 minute. Then, the supernatant was transferred into a 96-well ELISA plate, and pSTAT3 ELISA assay was performed according to the instructions of the kit (CST, 7300CA). Absorbance values at […] were read on PHERAstar FSX (BMG LRBTECH). The inhibition rate of the compounds was assessed using the following formula, and IC50 values were obtained by fitting with Graphpad.
(§1) Calculation formula of inhibition rate: [formula] • where Data negative: mean of DMSO control group; and • Data positive: mean of non-IL23-stimulated group
The calculation formula of IC50 was as follows: Y = Bottom + (Top−Bottom)/(1+10^(∧)((LogIC50−X)*HillSlope)) [formula] • where X: concentration of compound; and • Y: inhibition rate of compound. Table 3. pSTAT3 inhibition

IL-23R = target: T2, IL-23R (Homo sapiens, UniProt Q5VWK5); test: IL-23R reporter gene assay (HEK-blue IL23 reporter gene cell line, rhIL23 stimulation); format: cell-based; details: Inhibition of IL-23R, rhIL23 1 ng/mL, 24 hours
T2 construct: host or cells: HEK-blue IL23 reporter gene cell line
T2 sequence (Q5VWK5 24-629): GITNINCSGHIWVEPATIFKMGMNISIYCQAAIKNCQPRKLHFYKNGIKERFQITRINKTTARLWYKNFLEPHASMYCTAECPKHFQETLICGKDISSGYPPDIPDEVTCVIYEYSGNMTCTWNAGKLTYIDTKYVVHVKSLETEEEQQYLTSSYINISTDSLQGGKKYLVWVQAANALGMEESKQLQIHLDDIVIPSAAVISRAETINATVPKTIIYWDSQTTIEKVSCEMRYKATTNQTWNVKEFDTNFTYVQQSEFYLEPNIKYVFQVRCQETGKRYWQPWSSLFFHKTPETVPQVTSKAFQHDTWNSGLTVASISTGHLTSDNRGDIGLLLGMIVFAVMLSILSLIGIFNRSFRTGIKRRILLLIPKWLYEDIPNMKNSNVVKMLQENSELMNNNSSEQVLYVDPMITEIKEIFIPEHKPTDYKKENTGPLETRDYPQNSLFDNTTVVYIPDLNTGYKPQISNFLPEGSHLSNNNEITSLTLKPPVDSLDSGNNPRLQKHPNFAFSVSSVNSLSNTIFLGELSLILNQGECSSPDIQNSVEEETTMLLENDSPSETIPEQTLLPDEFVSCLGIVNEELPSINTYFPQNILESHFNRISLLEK
Experimental: 2. IL-23R reporter gene assay
The purpose of this assay was to assess the ability of compounds to inhibit the binding of IL23p19 to IL23R in a reporter gene system. The HEK-blue IL23 reporter gene cell line (Invivogen, hkb-il23) was cultured in DMEM + 10% FBS + 100 ug/mL Normocin medium. When the cell density reached 80%-90%, 5000 cells/well were plated into a 384-well plate, and the plate was incubated overnight at 37°C with 5% CO2. Then, the compound stock solution was diluted in DMSO, and 40 nL of the dilution was transferred into the 384-well culture plate by Echo. The plate was incubated at 37°C with 5% CO2 for 0.5 hours. 40 nL/well of rhIL23 (R&D, 1290-IL) was added to the 384-well cell culture plate at a final concentration of 1 ng/mL, and the plate was incubated at 37°C with 5% CO2 for 24 hours. 18 µL of Quanti-Blue™ solution was added to a new 384-well plate. 2 µL/well of cell culture supernatant was transferred into the 384-well plate prepared in Step 6, and the plate was incubated at 37°C with 5% CO2 for 1 hour. Absorbance values at […] were read on BMG. The binding ability of the compounds was assessed using the following formula, and IC50 values were obtained by fitting with Graphpad.
as §1
The calculation formula of IC50 was as follows: Y = Bottom + (Top−Bottom)/(1+10^(∧)((LogIC50−X)*HillSlope)) [formula] • where X: concentration of compound; and • Y: inhibition rate of compound Table 2. Inhibition of IL-23R by test compounds

Compound	IC50 (IL-23α/IL-12β and IL-23R)	IC50 [1]	IC50 (IL-23R)
CC(=O)N[C@@H]1C(=O)N[C@@H](Cc2c[nH]cn2)C(=O)N[C@@H]([C@@H](C)O)C(=O)N[C@@H](Cc2c[nH]c3c(C)cccc23)C(=O)N[C@@H](CCC(N)=O)C(=O)N[C@H](C(=O)N[C@@H](Cc2ccc(OCCN)c3c2CCC3)C(=O)N[C@@H](Cc2ccc3ccccc3c2)C(=O)NC2(C(=O)N[C@@H](CCC(=O)O)C(=O)N[C@@H](CC(N)=O)C(=O)N[C@@H](Cc3cccnc3)C(=O)N(C)CC(N)=O)CCS(=O)(=O)CC2)C(C)(C)SSC1(C)C [Compound 15] (Ac-[Pen]HT[Trp(7-Me)]Q[Pen][Phe(4-OC2H4NH2,2,3-(CH2)3)][2Nal][Thp(SO2)]EN[3Pal][Sar]-NH2; disulfide 1-6)	0.075 nM	0.0062 nM	5.26 nM
CC(=O)NCCCC[C@@H]1NC(=O)[C@H](Cc2c[nH]c3c(C)cccc23)NC(=O)[C@H]([C@@H](C)O)NC(=O)[C@H](Cc2c[nH]cn2)NC(=O)[C@@H](NC(C)=O)C(C)(C)SSC(C)(C)[C@@H](C(=O)N[C@@H](Cc2ccc(OCCN)cc2)C(=O)N[C@@H](Cc2ccc3ccccc3c2)C(=O)NC2(C(=O)N[C@@H](CCC(=O)O)C(=O)N[C@@H](CC(N)=O)C(=O)N[C@@H](Cc3cccnc3)C(=O)N(C)CC(N)=O)CCOCC2)NC1=O [Compound 3] (Ac-[Pen]HT[Trp(7-Me)]K(Ac)[Pen][AEF][2Nal][Thp]EN[3Pal][Sar]-NH2; disulfide 1-6)	0.174 nM	0.0066 nM	1.36 nM
CC(=O)N[C@H]1CC(=O)NCC[C@@H](C(=O)N[C@@H](Cc2ccc(OCCN)cc2)C(=O)N[C@@H](Cc2ccc3ccccc3c2)C(=O)NC2(C(=O)N[C@@H](CCC(=O)O)C(=O)N[C@@H](CC(N)=O)C(=O)N[C@@H](Cc3cccnc3)C(=O)N(C)CC(N)=O)CCOCC2)NC(=O)[C@H](CCC(N)=O)NC(=O)[C@H](Cc2c[nH]c3c(C)cccc23)NC(=O)[C@H]([C@@H](C)O)NC(=O)[C@H](Cc2c[nH]cn2)NC1=O [Compound 22] (Ac-DHT[Trp(7-Me)]Q[Dab][AEF][2Nal][Thp]EN[3Pal][Sar]-NH2; lactam 1-6)	0.129 nM	0.0157 nM	
